{
  "source": "patent US20140205681A1",
  "about": "“HYDROGEN-BOND SURROGATE PEPTIDES AND PEPTIDOMIMETICS FOR p53 REACTIVATION” (New York University, priority 2013, published 2014)",
  "key": {"UMSCC47 cells [1]": {"tested_on": "UMSCC47 cells", "experiment": "Cell proliferation (MTT)", "format": "cell-based, human", "details": "UMSCC47/CH1 cells", "experimental": "(§1) Cell proliferation was assessed using the MTT reagent (Roche Molecular Biochemicals, Nutley, N.J.) to detect metabolic active cells. Absorbance was measured at 570 nm in the Spectra Max 190 ELISA reader (Molecular Devices, Sunnyvale, Calif.) after overnight incubation. For clonogenic survival, 200 cells per well were plated in complete growth media and allowed to grow until visible colonies were formed (14 days). Cell colonies were fixed with cold methanol, stained with 0.25% crystal violet in 25% methanol, washed, and air dried. For apoptosis, cells were harvested, washed with cold PBS, and co-stained with Annexin V and propidium iodide according to the manufacturer's protocol (ApoAlert Annexin V-FITC Apoptosis Kit; Clontech). Apoptotic cells were analyzed using BD FACS Calibur (BD Biosciences Corporation, Franklin Lakes, N.J.) at The Ohio State University Comprehensive Cancer Center Analytical Cytometry Core."}, "UPCI:SCC090 cells [2]": {"tested_on": "UPCI:SCC090 cells", "experiment": "Cell proliferation (MTT)", "format": "cell-based, human", "details": "UPCI:SCC090/CH1 cells", "experimental": "as §1"}, "UMSCC74A cells [3]": {"tested_on": "UMSCC74A cells", "experiment": "Cell proliferation (MTT)", "format": "cell-based, human", "details": "overexpression of CH1, UMSCC74A cells", "experimental": "as §1"}, "p53 [4]": {"tested_on": "p53", "experiment": "Western blot of total and acetylated[K382] p53 levels", "format": "cell-based, human", "experimental": "Whole cell lysates were mixed with Laemmli loading buffer, boiled, separated by SDS-PAGE, and transferred to a nitrocellulose membrane. Subsequently, immunoblot analyses were performed using antibodies specific to V5 (Invitrogen), p53 (sc-126, Santa Cruz Biotechnology, Santa Cruz, Calif.), or acetylated[[…]]-p53 (2525, Cell Signaling Technology). The signal was developed using the SuperSignal Western Blotting Kit (Pierce, Rockford, Ill.)."}, "[5]": {"tested_on": "p300, p53, p21, miR-34a, miR-200c", "experiment": "Quantitative real-time PCR of p300, p53, p21, miR-34a and miR-200c expression", "format": "cell-based, human", "experimental": "Cells were extracted for total RNA using the TRIzol® reagent (Invitrogen) or TaqMan PreAmp Cells-to-CT kit (Applied Biosystems). Expression of p300, p53, p21, miR-34a and miR-200c were determined using the Applied Biosystems 7900HT Fast Real-Time PCR System with validated TaqMan gene expression assays (Applied Biosystems). p53, p300, and p21 expression were normalized to GADPH and miR-34a and miR-200c expression were normalized to RNU44 using the ΔΔCt method."}, "UMSCC47 cells [6]": {"tested_on": "UMSCC47 cells", "experiment": "Tumor incidence and growth in athymic nude mice", "format": "in vivo", "experimental": "After 3 weeks, tumors were measured once a week using a digital caliper and tumor volumes were calculated using the formula d1×d2×d3×0.5236, where “d” represents the three orthogonal diameters. Tumor growth and incidence were monitored for 49 days following tumor cell implantation."}, "p53 [7]": {"tested_on": "p53", "experiment": "p53 transcriptional activity (Cignal p53 Firefly/Renilla luciferase reporter)", "format": "cell-based, human", "experimental": "Cells were transfected with 100 ng of Cignal p53 reporter (SABiosciences, Valencia, Calif.) using Lipofectamine 2000. Cignal p53 reporter contains tandem repeats of the p53 consensus transcriptional response element. After 48 hours, cells were washed with cold PBS, lysed in passive lysis buffer (Promega), and measured for Firefly/Renilla dual luciferase activities in a luminometer using the Dual-Light System (Applied Biosystems, Foster City, Calif.). […] to control for transfection efficiency. A modification to the protocol was used for compound treatment. UMSCC47 cells were transfected with 100 ng of Cignal p53 reporter. After 24 hours, cells were treated with vehicle, CH1iB (10 μM), cis-platinum (10 μM), or combination of CH1iB (10 μM) and cis-platinum (10 μM) and measured for Firefly/Renilla dual luciferase activities 24 hours post-treatment."}, "HPV16 E6-p300": {"molecular_target": "T1, HPV16 E6-p300 (Homo sapiens, UniProt Q09472)", "T1 construct": "Cell lysates were extracted, immunoprecipitated with anti-p300 antibody, and immunoblotted with anti-E6 antibody; endogenous in cells; host or cells: UMSCC47 (HPV16-positive HNSCC)", "T1 sequence (Q09472 whole entry)": "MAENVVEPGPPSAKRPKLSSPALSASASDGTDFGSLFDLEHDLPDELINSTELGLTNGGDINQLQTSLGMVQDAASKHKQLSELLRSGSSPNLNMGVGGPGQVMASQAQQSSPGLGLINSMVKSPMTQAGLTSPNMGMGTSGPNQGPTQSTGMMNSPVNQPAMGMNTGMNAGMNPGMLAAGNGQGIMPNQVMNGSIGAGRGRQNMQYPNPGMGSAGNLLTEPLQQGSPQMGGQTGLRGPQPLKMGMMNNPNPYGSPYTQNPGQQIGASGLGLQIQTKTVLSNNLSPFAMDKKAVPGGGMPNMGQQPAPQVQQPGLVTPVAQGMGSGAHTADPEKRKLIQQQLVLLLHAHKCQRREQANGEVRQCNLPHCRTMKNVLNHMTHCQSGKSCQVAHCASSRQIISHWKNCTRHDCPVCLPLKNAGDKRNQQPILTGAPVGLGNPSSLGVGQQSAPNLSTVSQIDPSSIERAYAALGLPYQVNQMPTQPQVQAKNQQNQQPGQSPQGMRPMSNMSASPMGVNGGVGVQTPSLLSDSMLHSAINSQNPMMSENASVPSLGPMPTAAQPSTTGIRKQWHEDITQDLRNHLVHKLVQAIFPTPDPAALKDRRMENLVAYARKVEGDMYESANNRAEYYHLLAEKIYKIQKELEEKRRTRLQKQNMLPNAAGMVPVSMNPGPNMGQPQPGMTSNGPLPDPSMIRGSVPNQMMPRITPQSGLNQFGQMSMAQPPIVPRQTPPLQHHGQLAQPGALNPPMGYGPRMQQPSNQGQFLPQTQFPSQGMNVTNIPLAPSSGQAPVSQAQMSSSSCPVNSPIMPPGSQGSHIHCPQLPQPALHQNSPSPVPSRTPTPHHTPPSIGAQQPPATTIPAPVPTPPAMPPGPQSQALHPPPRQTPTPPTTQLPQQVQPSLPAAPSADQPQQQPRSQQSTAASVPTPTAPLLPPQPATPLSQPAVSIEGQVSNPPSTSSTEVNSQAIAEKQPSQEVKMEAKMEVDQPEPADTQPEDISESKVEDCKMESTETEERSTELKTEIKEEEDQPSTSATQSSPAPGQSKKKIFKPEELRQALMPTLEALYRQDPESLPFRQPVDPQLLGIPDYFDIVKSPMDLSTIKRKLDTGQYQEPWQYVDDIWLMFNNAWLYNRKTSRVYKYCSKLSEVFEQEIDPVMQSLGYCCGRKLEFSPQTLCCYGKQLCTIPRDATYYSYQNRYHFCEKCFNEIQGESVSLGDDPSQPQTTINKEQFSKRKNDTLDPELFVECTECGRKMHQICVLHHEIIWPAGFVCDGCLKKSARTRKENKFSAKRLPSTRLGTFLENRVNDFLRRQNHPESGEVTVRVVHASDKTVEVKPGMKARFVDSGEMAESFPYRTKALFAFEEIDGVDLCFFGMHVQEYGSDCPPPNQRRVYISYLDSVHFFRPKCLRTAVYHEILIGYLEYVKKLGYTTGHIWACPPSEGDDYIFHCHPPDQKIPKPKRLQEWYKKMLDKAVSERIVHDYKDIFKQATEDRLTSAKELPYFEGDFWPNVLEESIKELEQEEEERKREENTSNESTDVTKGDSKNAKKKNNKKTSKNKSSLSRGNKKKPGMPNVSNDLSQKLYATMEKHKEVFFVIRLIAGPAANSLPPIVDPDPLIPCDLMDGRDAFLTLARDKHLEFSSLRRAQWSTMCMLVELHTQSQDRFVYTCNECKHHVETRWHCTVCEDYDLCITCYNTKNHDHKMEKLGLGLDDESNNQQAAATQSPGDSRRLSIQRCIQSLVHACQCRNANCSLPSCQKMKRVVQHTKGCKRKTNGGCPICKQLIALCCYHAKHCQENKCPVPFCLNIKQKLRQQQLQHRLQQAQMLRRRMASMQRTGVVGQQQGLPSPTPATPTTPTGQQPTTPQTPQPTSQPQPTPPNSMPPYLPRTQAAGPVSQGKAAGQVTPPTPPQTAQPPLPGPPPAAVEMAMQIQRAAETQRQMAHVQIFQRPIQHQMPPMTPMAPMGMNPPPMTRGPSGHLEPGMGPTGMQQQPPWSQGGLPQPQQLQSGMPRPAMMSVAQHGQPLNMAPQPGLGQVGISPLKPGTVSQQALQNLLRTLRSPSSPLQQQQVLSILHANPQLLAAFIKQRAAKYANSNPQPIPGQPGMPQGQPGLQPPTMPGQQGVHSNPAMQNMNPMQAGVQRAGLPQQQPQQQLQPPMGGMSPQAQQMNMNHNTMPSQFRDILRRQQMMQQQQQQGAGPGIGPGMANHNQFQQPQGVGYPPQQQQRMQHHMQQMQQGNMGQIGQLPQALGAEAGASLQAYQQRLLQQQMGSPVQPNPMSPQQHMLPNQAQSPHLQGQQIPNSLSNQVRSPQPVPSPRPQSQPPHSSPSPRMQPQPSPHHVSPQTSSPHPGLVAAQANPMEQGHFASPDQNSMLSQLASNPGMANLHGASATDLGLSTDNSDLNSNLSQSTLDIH", "experiment": "Immunoprecipitation of HPV16 E6-p300 association", "format": "cell-based", "details": "exogenous CH1; UMSCC47 and UPCI:SCC090 cells", "experimental": "Cells were lysed with NP buffer [50 mM Tris (pH 8.0), 150 mM NaCl, 0.5% deoxycholate, 0.1% SDS, and 1.0% NP-40] containing 1× Protease Inhibitor Cocktail (Roche, Switzerland) at 4° C. with gentle rocking for 15 min. The supernatant was pre-cleared to block nonspecific binding with 50 μL protein A/G Agarose beads (Pierce Biotechnology) that had been pre-washed with NP buffer before use. Equal amounts of anti-E6 antibody (Abcam), anti-p300 antibody (Millipore), or IgG antibody (Cell Signaling) were added to the respective samples. After 4 hours incubation at 4° C., 50 μL pre-washed protein A/G-agarose beads were added to each tube and immunoprecipitation was performed by rocking overnight at 4° C. The immunoprecipitated complexes were washed with NP buffer and then eluted using 2×SDS sample buffer. Eluted sample and 10% of input were resolved by SDS-PAGE for Western blot analysis with anti-E6, anti-p300, or anti-V5 antibodies."}, "UMSCC47 cells [8]": {"tested_on": "UMSCC47 cells", "experiment": "Tumorsphere formation", "format": "cell-based, human", "details": "overexpression of CH1, UMSCC47 cells", "experimental": "Cells were harvested and seeded in a serum-free defined medium consisting of KSF medium supplemented with epidermal growth factor, basic fibroblast growth factor, insulin, and hydrocortisone in low-attachment plates (Corning Incorporated, Corning, N.Y.) for tumorspheres. Tumorsphere formation efficiency was calculated as the number of tumorspheres ([…] in diameter) formed in 7 days divided by the original number of cells seeded. Tumorsphere diameter was measured using NIS-Elements software."}, "UMSCC47 cells [9]": {"tested_on": "UMSCC47 cells", "experiment": "Apoptosis (Annexin V FACS)", "format": "cell-based, human", "details": "CH1 overexpression", "experimental": "as §1"}, "UPCI:SCC090 cells [10]": {"tested_on": "UPCI:SCC090 cells", "experiment": "Apoptosis (Annexin V FACS)", "format": "cell-based, human", "details": "CH1 overexpression", "experimental": "as §1"}, "UMSCC74A cells [11]": {"tested_on": "UMSCC74A cells", "experiment": "Apoptosis (Annexin V FACS)", "format": "cell-based, human", "details": "overexpression of CH1, UMSCC74A cells", "experimental": "as §1"}, "UMSCC47 cells [12]": {"tested_on": "UMSCC47 cells", "experiment": "Clonogenic survival (crystal violet)", "format": "cell-based, human", "details": "UMSCC47/CH1 cells", "experimental": "as §1"}, "UPCI:SCC090 cells [13]": {"tested_on": "UPCI:SCC090 cells", "experiment": "Clonogenic survival (crystal violet)", "format": "cell-based, human", "details": "UPCI:SCC090/CH1 cells", "experimental": "as §1"}, "[14]": {"details": "CH1 overexpressing UMSCC47 and UPCI:SCC090 cells"}},
  "data": [
    {"substance": "CH1: CH1 domain of p300 ectopically expressed from pcDNA3.1/CH1 in stably transfected HNSCC cells", "values": [
      {"measurement": "cell proliferation, reduced by", "setting": "UMSCC47 cells [1]", "value": 20, "unit": "%"},
      {"measurement": "cell proliferation, reduced by", "setting": "UPCI:SCC090 cells [2]", "value": 11, "unit": "%"},
      {"measurement": "cell proliferation, inhibited by", "setting": "UMSCC74A cells [3]", "value": 48, "unit": "%"},
      {"measurement": "acetylated p53", "setting": "p53 [4]; [14]", "value": "increase"},
      {"measurement": "total p53", "setting": "p53 [4]; [14]", "value": "accumulation"},
      {"measurement": "total and acetylated p53", "setting": "p53 [4]; ectopic expression of CH1, HPV-negative UMSCC74A cells", "value": "increased"},
      {"measurement": "miR-34a expression, increased by", "setting": "[5]; UMSCC47/CH1 cells", "value": 323, "unit": "%"},
      {"measurement": "miR-200c expression, increased by", "setting": "[5]; UMSCC47/CH1 cells", "value": 80, "unit": "%"},
      {"measurement": "p21 expression, increased by", "setting": "[5]; UMSCC47/CH1 cells", "value": 114, "unit": "%"},
      {"measurement": "miR-34a expression, increased by", "setting": "[5]; UPCI:SCC090/CH1 cells", "value": 134, "unit": "%"},
      {"measurement": "miR-200c expression, increased by", "setting": "[5]; UPCI:SCC090/CH1 cells", "value": 49, "unit": "%"},
      {"measurement": "p21 expression, increased by", "setting": "[5]; UPCI:SCC090/CH1 cells", "value": 39, "unit": "%"},
      {"measurement": "p53 and p300 expression", "setting": "[5]; overexpression of CH1, UMSCC47 and UPCI:SCC090", "value": "no effect"},
      {"measurement": "tumor incidence", "setting": "UMSCC47 cells [6]; 3×10^4 UMSCC47/CH1 cells implanted (UMSCC47/empty 50%)", "value": 0, "unit": "%"},
      {"measurement": "mean tumor volume", "setting": "UMSCC47 cells [6]; 3×10^5 UMSCC47/CH1 cells implanted (UMSCC47/empty 142 mm^3)", "value": 67, "unit": "mm^3"},
      {"measurement": "tumor incidence vs UMSCC47/empty", "setting": "UMSCC47 cells [6]; 3×10^5 cells implanted in flanks, 49 days", "value": "the same"},
      {"measurement": "p53 transcription activity, elevated by", "setting": "p53 [7]; UMSCC47/CH1 cells vs empty vector", "value": 85, "unit": "%"},
      {"measurement": "p53 transcription activity, elevated by", "setting": "p53 [7]; UMSCC74A/CH1 vs UMSCC74A/empty cells", "value": 68, "unit": "%"},
      {"measurement": "p53 transcription activity, elevated by", "setting": "p53 [7]; UPCI:SCC090/CH1 cells vs empty vector", "value": 50, "unit": "%"},
      {"measurement": "association between E6 and p300", "setting": "HPV16 E6-p300", "value": "reduce the association between E6 and p300"},
      {"measurement": "tumorsphere diameter, reduced by", "setting": "UMSCC47 cells [8]", "value": 25, "unit": "%"},
      {"measurement": "tumorsphere formation efficiency, inhibited by", "setting": "UMSCC47 cells [8]", "value": 42, "unit": "%"},
      {"measurement": "apoptosis, increased by", "setting": "UMSCC47 cells [9]", "value": 60, "unit": "%"},
      {"measurement": "apoptosis, increased by", "setting": "UPCI:SCC090 cells [10]", "value": 27, "unit": "%"},
      {"measurement": "apoptosis, increased by", "setting": "UMSCC74A cells [11]", "value": 95, "unit": "%"},
      {"measurement": "clonogenic survival, reduced by", "setting": "UMSCC47 cells [12]", "value": 55, "unit": "%"},
      {"measurement": "clonogenic survival, reduced by", "setting": "UPCI:SCC090 cells [13]", "value": 58, "unit": "%"}
    ]}
  ]
}
